From paper PMC3042041 (ACS chemical biology, 2010) come the findings set out here.

pIC50: −log10 of the molar value.

For this experiment, the target named is T1, REV-ERBα (Homo sapiens, UniProt P20393).
T1 sequence (P20393 1-614): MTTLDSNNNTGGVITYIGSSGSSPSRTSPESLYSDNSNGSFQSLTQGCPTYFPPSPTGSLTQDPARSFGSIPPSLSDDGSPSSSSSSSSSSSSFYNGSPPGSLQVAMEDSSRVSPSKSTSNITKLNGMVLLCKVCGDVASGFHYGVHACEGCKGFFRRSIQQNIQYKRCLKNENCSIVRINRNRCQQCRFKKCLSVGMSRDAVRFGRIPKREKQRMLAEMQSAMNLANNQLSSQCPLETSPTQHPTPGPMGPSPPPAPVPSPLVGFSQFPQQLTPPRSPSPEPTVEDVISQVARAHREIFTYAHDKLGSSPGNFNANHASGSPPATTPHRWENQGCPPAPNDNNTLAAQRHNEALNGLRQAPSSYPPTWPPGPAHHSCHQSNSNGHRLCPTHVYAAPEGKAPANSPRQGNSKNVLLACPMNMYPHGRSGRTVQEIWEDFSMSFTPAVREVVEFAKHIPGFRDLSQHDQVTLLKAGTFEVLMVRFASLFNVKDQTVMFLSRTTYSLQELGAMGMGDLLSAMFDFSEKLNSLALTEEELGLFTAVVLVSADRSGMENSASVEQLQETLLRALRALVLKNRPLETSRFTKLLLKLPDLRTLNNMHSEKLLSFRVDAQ
As to the kind of experiment: Bmal1-luciferase / REV-ERBα cotransfection reporter assay in HEK293 cells. Type of experiment: cell-based. For orientation: In a reporter assay the amount or activity of a reporter protein is the signal.

Turning to `CC(C)(C)OC(=O)CN(Cc1ccc(Cl)cc1)Cc1ccc([N+](=O)[O-])s1` [GSK4112], the pIC50 was 5.64.

By pIC50 is commonly meant the IC50 on a negative log10 scale, so that one unit is a factor of ten. A lower pIC50 goes with a large IC50.
